This note sets out measurements from US5362497A, “Transdermal therapeutic composition” (priority 1989, dated 1994).

Assay type in all cases: in vivo, SD rats
Series [1] deals with hypertensive reaction induced by angiotensin I. The series can be described thus: Transdermal absorption test: inhibition of hypertensive reaction induced by angiotensin I in rats.
Procedure: Using 9-week-old male SD rats, the transdermal therapeutic tape (6 mg as compound (I)/rat) was applied to a clipped area (6 cm^2) of the abdominal skin and the area of exposure was covered by the occluded dressing method. The transdermal absorption effect was evaluated daily by monitoring the inhibition rate (%) against hypertensive reaction induced by angiotensin I. Angiotensin I was administered in an intravenous dose of 300 ng/kg (rats).
Using 9-week-old male SD rats, the transdermal therapeutic tape (9 mg as compound (I)/rat) was applied to a clipped area (6 cm^2) of the abdominal skin and the area of exposure was covered by the occluded dressing method.
The nature of series [2]: TRH concentration in plasma after transdermal application (radioimmunoassay). The following applies: for concentration at 0.5 h: 0.5 h after administration; for concentration at 1 h: 1 h after administration; for concentration at 2 h: 2 h after administration; for concentration at 4 h: 4 h after administration; for concentration at 6 h: 6 h after administration. Here is the method:
The above transdermal therapeutic composition was put on a clipped abdomen of male SD rats (7-week-old, 240 to 270 g, 4 heads) and fixed with a surgical tape. After 0.5, 1, 2, 4, 6 and 24 hours, the blood was collected from the tail vein. After the blood was treated with heparin, 50 μl of a reagent (aqueous solution containing 0.01 g/l of 8-hydroxyquinoline sulfate, 0.15 g/l of EDTA-2Na and 0.05 g/l of Tween 20) was added to 0.5 ml of the blood to separate the plasma. The TRH concentration in the plasma was determined by the below-mentioned radioimmunoassay. To 100 μl of the separated plasma were added 100 μl of 0.7% bovine serum albumin, 100 μl of anti-TRH antibody (500-fold dilution) and 100 μl of ^125 I-labeled TRH (about 10000 dpm), and the resulting mixture was incubated at 4° C. for 3 days. The secondary antibody (100 μl of anti-γ-globulin serum and 100 μl of normal rabbit serum) was then added, and the mixture was incubated at 4° C. for 1 day. The supernatant was removed by centrifugation at 3000 rpm, and the radioactivity of the precipitate was determined by a γ counter.
On the other hand, 10% polyvinyl alcohol gel (pH 4, buffered with 0.01M citric acid-0.01M disodium phosphate) containing 2% TRH was formulated to make the diameter and thickness 3.2 cm and 0.1 cm respectively (sticking area: 8 cm^2; TRH content: 16 mg), and applied to SD rats (4 heads) in the same manner as mentioned above. The TRH concentration in the plasma was determined by the radioimmunoassay in the same manner as mentioned above.

The nature of series [3]: Molsidomine concentration in plasma after transdermal application (HPLC). Here is the method: The above transdermal therapeutic composition was put on a clipped abdomen of male SD rats (7-week-old, 240 to 270 g, 5 heads) and fixed with a surgical tape. After 1, 2, 4, 6 and 24 hours, the blood was collected from the tail vein, and the concentration of molsidomine in the plasma was determined by HPLC.
On the other hand, 0.5 g of molsidomine was dissolved in 3 g of propylene glycol, and 0.35 g of the solution was absorbed into a rayon web of nonwoven fabric and applied to SD rats in the same manner as mentioned above.

Series [4] in a line: Vinpocetine concentration in plasma after transdermal application (HPLC). Here is the method:
The above transdermal therapeutic composition was put on a clipped abdomen of male SD rats (7-week-old, 240 to 270 g, 4 heads) and fixed with a surgical tape. Just before the administration and after 0.5, 1, 2, 4, 6 and 24 hours, the blood was collected from the tail vein. After the blood was treated with heparin, the plasma was separated. The concentration of vinpocetine in the plasma was determined by HPLC after the plasma was cleaned up by Sep-Pak C18 (Waters).
On the other hand, 0.35 g of 4% aqueous suspension of vinpocetine was absorbed into a web of nonwoven fabric and applied to SD rats in the same manner as mentioned above.

[5] abbreviates: Example 1 tape, 6 mg as compound (I)/rat.
Setting [6] is: Example 2 tape, procedure of Example 1.
Setting [7] is: Example 3 tape, procedure of Example 1.
The mark [8] stands for this setting: Example 4 tape, 9 mg as compound (I)/rat.
The mark [9] stands for this setting: rat, plasma, topical or ocular, Example 6 composition.
Where [10] appears, read: rat, plasma, topical or ocular, comparison: 10% polyvinyl alcohol gel pH 4, 2% TRH (16 mg), 8 cm^2.

Take `O=C(O)CN1C(=O)[C@@H](N[C@@H](CCCCC2CCNCC2)C(=O)O)CSc2ccccc21` [Compound (I), (R)-3-[(S)-1-carboxy-5-(4-piperidyl)pentyl]amino-4-oxo-2,3,4,5-tetrahydro-1,5-benzothiazepine-5-acetic acid]: the “duration of effect (inhibition of hypertensive reactivity induced by angiotensin I)” value in series [1] (setting [5]) was greater than 24 h. Further, the transdermal absorption entry in series [1] (setting [5]), in series [1] (setting [6]), in series [1] (setting [7]) and in series [1] (setting [8]) was “sufficiently absorbed transdermally” each time. In addition, the “initiation time of 80% inhibition against hypertensive reactivity induced by angiotensin I” value in series [1] (Example 1 tape, 6 mg as compound (I)/rat, abdominal skin 6 cm^2, angiotensin I 300 ng/kg i.v.) was “five”. The “inhibition against hypertensive reactivity induced by angiotensin I” value in series [1] (Example 1 tape, 6 mg as compound (I)/rat, five hours after administration) came out at 80%. Besides, the “duration of effect (inhibition of hypertensive reaction by angiotensin I)” value in series [1] (setting [6]) and in series [1] (setting [7]) was greater than 24 h in each case. For the same molecule, the entries for the “initiation time of 80% inhibition against hypertensive reaction by angiotensin I” value in series [1] (setting [6]) and in series [1] (setting [7]) were “three” and “five”, respectively. Moreover, the “inhibition against hypertensive reaction by angiotensin I” value is 80% in series [1] (Example 2 tape, three hours after administration) and 80% in series [1] (Example 3 tape, five hours after administration). The “duration of effect (inhibition of hypertensive reactivity by angiotensin I)” value in series [1] (setting [8]) is greater than 24 h. Further, in series [1] (Example 4 tape, 9 mg as compound (I)/rat, abdominal skin 6 cm^2), the “initiation time of 80% inhibition against hypertensive reactivity by angiotensin I” value is given as “five”. In series [1] (Example 4 tape, 9 mg as compound (I)/rat, five hours after administration), the “inhibition against hypertensive reactivity by angiotensin I” value stood at 80%.
As to `NC(=O)[C@@H]1CCCN1C(=O)[C@H](Cc1cnc[nH]1)NC(=O)[C@@H]1CCC(=O)N1` [TRH, L-pyroglutamyl-L-histidyl-L-prolinamide], in series [2] (Example 6 composition), the “TRH concentration in the plasma (in words)” value is “rapidly increased”. Further, the “TRH concentration in the plasma (in words)” value in series [2] (comparison: 10% polyvinyl alcohol gel pH 4, 2% TRH (16 mg), 8 cm^2) is given as “very low”. In series [2] (setting [9]), this molecule yielded a concentration at 0.5 h of 59 ng/mL, a concentration at 1 h of 88.9 ng/mL, a concentration at 2 h of 110 ng/mL and a concentration at 4 h of 391 ng/mL. Besides, the concentration at 6 h in series [2] (setting [9]) stood at 326 ng/mL. In addition, the concentration at 24 h in series [2] (rat, plasma, topical or ocular, Example 6 composition, 24 h after administration) was determined as 82.4 ng/mL. In series [2] (rat, plasma, topical or ocular, Example 6 composition, read-out: maximum concentration in the plasma), the Cmax is roughly 400 ng/mL. Besides, the Tmax in series [2] (rat, plasma, topical or ocular, Example 6 composition, read-out: time of maximum concentration in the plasma) amounted to 4 h. Further, in series [2] (setting [10]), the concentration at 0.5 h was found to be 8.3 ng/mL, the concentration at 1 h is 8 ng/mL, the concentration at 2 h was 4.5 ng/mL and the concentration at 4 h was found to be 3 ng/mL. The molecule also yielded a concentration at 6 h in series [2] (setting [10]) of 1.8 ng/mL.
Take `CCOC(=O)[N-]c1cn(N2CCOCC2)n[o+]1` [molsidomine, N-ethoxycarbonyl-3-morpholinosydnonimine]: in series [3] (Example 5 composition), the “concentration of molsidomine in the blood (in words)” value was “a high concentration of molsidomine in the blood was observed”. The “concentration of molsidomine in the plasma” value in series [3] (comparison: solution of 0.5 g molsidomine in 3 g propylene glycol, 0.35 g on nonwoven fabric) is reported as “below the detection limit”. The concentration at 1 h in series [3] (rat, plasma, topical or ocular, Example 5 composition, 1 h after administration) is 123 ng/mL. The concentration at 2 h in series [3] (rat, plasma, topical or ocular, Example 5 composition, 2 h after administration) amounted to 235 ng/mL. Moreover, the concentration at 4 h in series [3] (rat, plasma, topical or ocular, Example 5 composition, 4 h after administration) was 451 ng/mL. Further, the concentration at 6 h in series [3] (rat, plasma, topical or ocular, Example 5 composition, 6 h after administration) came out at 322 ng/mL. This molecule also registered a concentration at 24 h in series [3] (rat, plasma, topical or ocular, Example 5 composition, 24 h after administration) of 169 ng/mL.
As to `CCOC(=O)C1=C[C@]2(CC)CCCN3CCc4c(n1c1ccccc41)[C@@H]32` [vinpocetine, apovincamic acid ethyl ester], in series [4] (Example 7 composition), the “concentration of vinpocetine in the plasma (in words)” value was “rapidly increased, and the required concentration was maintained during a period of 24 hours”. Also, the “Average concentration in plasma” value in series [4] (Example 7 composition, just before administration) is 0 ng/mL. Besides, in series [4] (comparison: 0.35 g of 4% aqueous suspension of vinpocetine on nonwoven fabric), the “concentration of vinpocetine in the plasma” value is on record as “below the detection limit”. This molecule also yielded a concentration at 0.5 h in series [4] (rat, plasma, topical or ocular, Example 7 composition, 0.5 h after administration) of 149 ng/mL. Also, the concentration at 1 h in series [4] (rat, plasma, topical or ocular, Example 7 composition, 1 h after administration) came out at 155 ng/mL. The concentration at 2 h in series [4] (rat, plasma, topical or ocular, Example 7 composition, 2 h after administration) was determined as 80.1 ng/mL. In series [4] (rat, plasma, topical or ocular, Example 7 composition, 4 h after administration), the concentration at 4 h turned out to be 60.7 ng/mL. The same molecule returned a concentration at 6 h in series [4] (rat, plasma, topical or ocular, Example 7 composition, 6 h after administration) of 74.1 ng/mL. Also, the concentration at 24 h in series [4] (rat, plasma, topical or ocular, Example 7 composition, 24 h after administration) was found to be 64.3 ng/mL.
